Three compounds from patent US12180187B2, “1-phenyl-5-azinylpyrazolyl-3-oxyalkyl acids and their use for controlling unwanted plant growth” (BAYER AKTIENGESELLSCHAFT, priority 2019, dated 2024) can be followed below.

The test system of one experiment is ABUTH. Description: Post-emergence action against ABUTH, 1.28 kg/ha. It counts as in vivo, Abutilon theophrasti. The following applies: dosage 1280 g/ha, visual rating about 3 weeks after treatment vs untreated controls (100% = plants died). In a few lines:
(§1)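 Herbicidal action is estimated by eye after about three weeks under optimum greenhouse conditions, on a 0–100% scale against untreated plants. Compounds are applied post-emergence to one-leaf-stage weeds as aqueous WP or EC preparations containing 0.5% additive, sprayed at 600 L/ha.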

The test system of experiment [1] is VERPE. Description: Post-emergence action against VERPE, 1.28 kg/ha. It counts as in vivo, Veronica persica. The following applies: dosage 1280 g/ha, visual rating about 3 weeks after treatment vs untreated controls (100% = plants died). The method, boiled down: as §1
In experiment [2] the test system is AMARE. Nature of the experiment: Post-emergence action against AMARE, 1.28 kg/ha. The class given is in vivo, Amaranthus retroflexus. The following applies: dosage 1280 g/ha, visual rating about 3 weeks after treatment vs untreated controls (100% = plants died). The method, boiled down: as §1
For a further experiment, the system named is KCHSC. Nature of the experiment: Post-emergence action against KCHSC, 1.28 kg/ha. It counts as in vivo, Bassia scoparia. The following applies: dosage 1280 g/ha, visual rating about 3 weeks after treatment vs untreated controls (100% = plants died). The method, then:
• a) Seeds of mono- and dicotyledonous weed plants are placed in plastic pots in sandy loam soil (twin sowing with one species each of mono- or dicotyledonous weed plants per pot), covered with soil and cultivated in a greenhouse under controlled growth conditions. 2 to 3 weeks after sowing, the test plants are treated at the one-leaf stage. The compounds of the invention, formulated in the form of wettable powders (WP) or as emulsion concentrates (EC), are applied to the green parts of the plants as aqueous suspension or emulsion with addition of 0.5% additive at a water application rate equivalent to 600 litres per hectare. After the test plants have been kept in the greenhouse under optimum growth conditions for about 3 weeks, the activity of the preparations is rated visually in comparison to untreated controls. For example, 100% activity=the plants have died, 0% activity=like control plants. As shown by the results, compounds of the general formula (I) of the invention, in post-emergence treatment, have very good herbicidal efficacy (90% to 100% herbicidal action) against harmful plants such as Abutilon theophrasti, Digitaria sanguinalis, Echinochloa crus-galli, Matricaria inodora, Poa annua, at an application rate of 1.28 kg of active substance per hectare.

Experiment [3] relates to AMARE. Nature of the experiment: Pre-emergence action against AMARE, 1280 g/ha. The class given is in vivo, Amaranthus retroflexus. The following applies: scored visually after about 3 weeks vs untreated controls (100% = plants have died). The method, boiled down:
(§2)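 In greenhouse pots of sandy loam, sown weed seeds were covered with soil and treated pre-emergence with the compound in water (600 L/ha, 0.5% additive). Efficacy was assessed visually as percent of untreated control after about 3 weeks.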

Experiment [4] deals with POAAN. Description: Pre-emergence action against POAAN, 1280 g/ha. The class given is in vivo, Poa annua. The following applies: visual scoring after about 3 weeks vs untreated controls, 100% = plants have died, 0% = like control plants. The method, boiled down:
as §2

In another experiment the test system is STEME. Nature of the experiment: Pre-emergence action against STEME, 1280 g/ha. The class given is in vivo, Stellaria media. The following applies: scored visually after about 3 weeks vs untreated controls (100% = plants have died). The method, boiled down:
as §2

The subject of experiment [5] is ALOMY. Nature of the experiment: Pre-emergence action against ALOMY, 1280 g/ha. The following applies: visual scoring after about 3 weeks vs untreated controls, 100% = plants have died, 0% = like control plants. It counts as in vivo, Alopecurus myosuroides. The method, boiled down: as §2
Experiment [6] has as its system DIGSA. Nature of the experiment: Pre-emergence action against DIGSA, 1280 g/ha. The class given is in vivo, Digitaria sanguinalis. The following applies: visual scoring after about 3 weeks vs untreated controls, 100% = plants have died, 0% = like control plants. In a few lines: as §2
The subject of the next experiment is SETVI. Nature of the experiment: Pre-emergence action against SETVI, 1280 g/ha. It counts as in vivo, Setaria viridis. The following applies: visual scoring after about 3 weeks vs untreated controls, 100% = plants have died, 0% = like control plants. In a few lines: as §2
The next experiment concerns ECHCG. Nature of the experiment: Pre-emergence action against ECHCG, 1280 g/ha. It counts as in vivo, Echinochloa crus-galli. The following applies: visual scoring after about 3 weeks vs untreated controls, 100% = plants have died, 0% = like control plants. The method, boiled down: as §2
Experiment [7] relates to POAAN. Nature of the experiment: Post-emergence action against POAAN, 1.28 kg/ha. It counts as in vivo, Poa annua. The following applies: dosage 1280 g/ha, visual rating about 3 weeks after treatment vs untreated controls. In a few lines: as §1
For experiment [8], the system named is MATIN. Nature of the experiment: Pre-emergence action against MATIN, 1280 g/ha. The following applies: scored visually after about 3 weeks vs untreated controls (100% = plants have died). The class given is in vivo, Tripleurospermum inodorum (Matricaria inodora). In a few lines: as §2
In experiment [9] the test system is MATIN. Nature of the experiment: Post-emergence action against MATIN, 1.28 kg/ha. The class given is in vivo, Tripleurospermum inodorum (Matricaria inodora). The following applies: dosage 1280 g/ha, visual rating about 3 weeks after treatment vs untreated controls (100% = plants died). The method, boiled down: as §1
Experiment [10] concerns VERPE. Nature of the experiment: Pre-emergence action against VERPE, 1280 g/ha. The class given is in vivo, Veronica persica. The following applies: scored visually after about 3 weeks vs untreated controls (100% = plants have died). In a few lines: as §2
Experiment [11] concerns ALOMY. Description: Post-emergence action against ALOMY, 1.28 kg/ha. The class given is in vivo, Alopecurus myosuroides. The following applies: dosage 1280 g/ha, visual rating about 3 weeks after treatment vs untreated controls. In a few lines: as §1
A further experiment deals with LOLRI. Description: Pre-emergence action against LOLRI, 1280 g/ha. The class given is in vivo, Lolium rigidum. The following applies: visual scoring after about 3 weeks vs untreated controls, 100% = plants have died, 0% = like control plants. In a few lines:
as §2

The test system of experiment [12] is DIGSA. Description: Post-emergence action against DIGSA, 1.28 kg/ha. The following applies: dosage 1280 g/ha, visual rating about 3 weeks after treatment vs untreated controls. It counts as in vivo, Digitaria sanguinalis. The method, boiled down: as §1

SMILES strings stand for the structures.

On to `N#CCCNC(=O)COc1nn(-c2ccc(F)cc2F)c(-c2ccc(F)nc2)c1Br` [Example X-029], for which the “Post-emergence action against ABUTH” value with ABUTH is given as 90%. For the same compound, in the experiment with VERPE [1], the “Post-emergence action against VERPE” value is 100%. In the experiment with AMARE [2], the “Post-emergence action against AMARE” value stood at 90%. Moreover, the “Post-emergence action against KCHSC” value in the experiment with KCHSC amounted to 90%. Moreover, the “Pre-emergence action against AMARE” value in the experiment with AMARE [3] came to 100%. Further, the “Pre-emergence action against POAAN” value in the experiment with POAAN [4] stood at 100%. Also, in the experiment with STEME, the “Pre-emergence action against STEME” value amounted to 90%.
As for `N#CCCNC(=O)COc1nn(-c2ccccc2F)c(-c2ccc(F)nc2)c1Br` [Example X-032], in the experiment with ALOMY [5], the “Pre-emergence action against ALOMY” value is 100%. The “Pre-emergence action against DIGSA” value in the experiment on DIGSA [6] is 100%. Also, in the experiment with VERPE [1], the “Post-emergence action against VERPE” value was 100%. Also, in the experiment on SETVI, the “Pre-emergence action against SETVI” value was 100%. In the experiment on ECHCG, the “Pre-emergence action against ECHCG” value amounted to 100%. For the same compound, the “Post-emergence action against POAAN” value in the experiment with POAAN [7] was 100%. In the experiment on MATIN [8], the “Pre-emergence action against MATIN” value came to 100%. In addition, the “Post-emergence action against KCHSC” value in the experiment on KCHSC came to 90%. In addition, the “Post-emergence action against MATIN” value in the experiment on MATIN [9] was determined as 90%. Also, in the experiment with AMARE [3], the “Pre-emergence action against AMARE” value is 100%. Further, the “Pre-emergence action against VERPE” value in the experiment on VERPE [10] was 100%. Also, the “Post-emergence action against ALOMY” value in the experiment with ALOMY [11] is 100%. Further, the “Pre-emergence action against POAAN” value in the experiment with POAAN [4] is 100%. Moreover, the “Pre-emergence action against LOLRI” value in the experiment on LOLRI amounted to 100%. Also, in the experiment on STEME, the “Pre-emergence action against STEME” value is given as 100%.
Regarding `CONC(=O)COc1nn(-c2ccc(F)cc2F)c(-c2ccc(F)cn2)c1Br` [II-004], in the experiment on ALOMY [5], the “Pre-emergence action against ALOMY” value was found to be 100%. Besides, in the experiment on DIGSA [6], the “Pre-emergence action against DIGSA” value worked out at 100%. Moreover, the “Post-emergence action against VERPE” value in the experiment on VERPE [1] is recorded as 100%. In addition, in the experiment on DIGSA [12], the “Post-emergence action against DIGSA” value was 100%. Further, in the experiment with KCHSC, the “Post-emergence action against KCHSC” value was 90%. Moreover, in the experiment with ALOMY [11], the “Post-emergence action against ALOMY” value is 100%. In the experiment with POAAN [4], the “Pre-emergence action against POAAN” value was found to be 100%. Also, in the experiment with LOLRI, the “Pre-emergence action against LOLRI” value is reported as 90%.
